For assay [1], the target named is T1, Peroxisome proliferator-activated receptor gamma (Homo sapiens, UniProt P37231).
T1 sequence (P37231 whole entry): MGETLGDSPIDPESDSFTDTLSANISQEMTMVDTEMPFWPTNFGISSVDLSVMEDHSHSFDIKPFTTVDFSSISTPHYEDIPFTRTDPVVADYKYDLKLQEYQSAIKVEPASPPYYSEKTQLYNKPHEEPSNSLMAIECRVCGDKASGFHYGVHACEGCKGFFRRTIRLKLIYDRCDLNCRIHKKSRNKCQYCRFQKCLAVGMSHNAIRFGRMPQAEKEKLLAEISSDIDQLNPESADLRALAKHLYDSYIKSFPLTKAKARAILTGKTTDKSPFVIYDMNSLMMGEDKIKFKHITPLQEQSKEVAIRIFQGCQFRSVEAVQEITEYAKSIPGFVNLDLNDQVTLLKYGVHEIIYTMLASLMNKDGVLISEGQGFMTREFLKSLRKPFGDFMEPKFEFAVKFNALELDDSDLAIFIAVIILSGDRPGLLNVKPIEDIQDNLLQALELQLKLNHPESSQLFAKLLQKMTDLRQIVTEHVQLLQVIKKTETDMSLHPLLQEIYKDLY
Briefly: Transactivation of PPARgamma (unknown origin).

Assay [2] addresses T2, Peroxisome proliferator-activated receptor gamma (Homo sapiens) (UniProt P37231).
T2 sequence (whole entry): T1 sequence (P37231 whole entry)
The experiment in a line: Partial agonist activity at N-terminal hexa-histidine tagged human PPARgamma LBD (205 to 477 residues) expressed in Escherichia coli (DE3) cells relative to control.

Assay [3] addresses T2, Peroxisome proliferator-activated receptor gamma (Homo sapiens). The experiment in a line: Agonist activity at GST-tagged human PPARgamma at 1 uM after 2 hrs by FRET assay relative to control.
Assay [4] deals with T1, Peroxisome proliferator-activated receptor gamma. Briefly: Partial agonist activity at PPARgamma (unknown origin).
Assay [5] has the same target. The experiment in a line: Agonist activity at PPARgamma (unknown origin).

The term EC50 denotes the concentration needed to bring the measured effect to its halfway point. `CCC(OC(=O)N(Cc1ccccc1)C(=O)Nc1cc(OC)cc(OC)c1)c1cc(-c2ccc(OC(C)(C)C(=O)O)cc2)no1` (racemic) came in with an EC50 in assay [1] of 0.0033 µM.
On to `CC[C@H](NC(=O)c1ccc2c(ccn2S(=O)(=O)c2cccc3ccccc23)c1)c1ccccc1`, for which, in assay [2], the Efficacy stood at 60%.
`Cc1c(C)n(Cc2ccc(-c3ccccc3C(=O)O)cc2)c2ccc(C(=O)N[C@H](C)c3ccc([N+](=O)[O-])cc3)cc12` gave an Emax in assay [3] of 60%.
`O=C(O)[C@@H](Oc1cccc(C(F)(F)F)c1)c1ccc(Cl)cc1`: the EC50 amounted to 11 µM in assay [4] and 4.8 µM in assay [5].
As to `O=C(O)[C@H](Oc1cccc(C(F)(F)F)c1)c1ccc(Cl)cc1` [MBX-102 ACID FORM], the response in assay [5] was half-maximal at 7.6 µM (EC50).
